In PubChem BioAssay (NCI):
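Cells were grown in 96-well plates and exposed to each compound for 48 hours at five concentrations; endpoints were interpolated linearly between bracketing concentrations, or set to the highest concentration if not reached. TGI: total growth inhibition.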

What was measured:
Assay in all cases: growth of human tumour cells (NCI), 48 h
HCT-15 colon = system: HCT-15 colon
K-562 leukemia = system: K-562 leukemia
LXFL 529 NSCLC = system: LXFL 529 NSCLC
SNB-75 CNS = system: SNB-75 CNS
MALME-3M melanoma = system: MALME-3M melanoma
SF-268 CNS = system: SF-268 CNS
SNB-78 CNS = system: SNB-78 CNS
KM12 colon = system: KM12 colon
M14 melanoma = system: M14 melanoma
SK-MEL-28 melanoma = system: SK-MEL-28 melanoma
HCC-2998 colon = system: HCC-2998 colon
SK-MEL-5 melanoma = system: SK-MEL-5 melanoma
COLO 205 colon = system: COLO 205 colon
IGROV1 ovarian = system: IGROV1 ovarian
HOP-18 NSCLC = system: HOP-18 NSCLC
CCRF-CEM leukemia = system: CCRF-CEM leukemia
XF 498 CNS = system: XF 498 CNS
DMS 273 small cell lung = system: DMS 273 small cell lung
ACHN renal = system: ACHN renal
DLD-1 colon = system: DLD-1 colon
NCI-H460 lung = system: NCI-H460 lung
DMS 114 small cell lung = system: DMS 114 small cell lung
SW-620 colon = system: SW-620 colon
SK-MEL-2 melanoma = system: SK-MEL-2 melanoma
EKVX NSCLC = system: EKVX NSCLC
SF-295 CNS = system: SF-295 CNS
HT29 colon = system: HT29 colon
SK-OV-3 ovarian = system: SK-OV-3 ovarian
A549 NSCLC = system: A549 NSCLC
CAKI-1 renal = system: CAKI-1 renal
RPMI-8226 leukemia = system: RPMI-8226 leukemia
U251 CNS = system: U251 CNS
A498 renal = system: A498 renal
OVCAR-3 ovarian = system: OVCAR-3 ovarian
KM20L2 colon = system: KM20L2 colon
HOP-62 NSCLC = system: HOP-62 NSCLC
UACC-257 melanoma = system: UACC-257 melanoma
RXF-631 renal = system: RXF-631 renal
MOLT-4 leukemia = system: MOLT-4 leukemia
786-0 renal = system: 786-0 renal
SN12C renal = system: SN12C renal
HL-60(TB) leukemia = system: HL-60(TB) leukemia
HOP-92 NSCLC = system: HOP-92 NSCLC
UACC-62 melanoma = system: UACC-62 melanoma
M19-MEL melanoma = system: M19-MEL melanoma
OVCAR-8 ovarian = system: OVCAR-8 ovarian
SF-539 CNS = system: SF-539 CNS
OVCAR-4 ovarian = system: OVCAR-4 ovarian
TK-10 renal = system: TK-10 renal
NCI-H226 lung = system: NCI-H226 lung
NCI-H23 lung = system: NCI-H23 lung
LOX IMVI melanoma = system: LOX IMVI melanoma
SNB-19 CNS = system: SNB-19 CNS
UO-31 renal = system: UO-31 renal
OVCAR-5 ovarian = system: OVCAR-5 ovarian
HCT-116 colon = system: HCT-116 colon

Compound `COc1ccc(C(=O)C(C(=O)C(=O)Nc2nc3ccc(OC)cc3s2)c2ccc(OC)cc2)cc1` (configuration not stated) has a TGI (HCT-15 colon) greater than 100 µM, a TGI (K-562 leukemia) greater than 100 µM and a TGI (LXFL 529 NSCLC) greater than 100 µM. It also gave a TGI (SNB-75 CNS) greater than 100 µM, a TGI (MALME-3M melanoma) greater than 100 µM and a TGI (SF-268 CNS) greater than 100 µM. The TGI (SNB-78 CNS) was greater than 100 µM, the TGI (KM12 colon) was greater than 100 µM and the TGI (M14 melanoma) was greater than 100 µM. For the same compound, the TGI (SK-MEL-28 melanoma) was greater than 100 µM, the TGI (HCC-2998 colon) was greater than 100 µM and the TGI (SK-MEL-5 melanoma) was greater than 100 µM. For the same compound, the TGI (COLO 205 colon) was greater than 100 µM, the TGI (IGROV1 ovarian) was greater than 100 µM and the TGI (HOP-18 NSCLC) was greater than 100 µM. For the same compound, the TGI (CCRF-CEM leukemia) was greater than 100 µM, the TGI (XF 498 CNS) was greater than 100 µM and the TGI (DMS 273 small cell lung) was greater than 100 µM. It also gave a TGI (ACHN renal) greater than 100 µM, a TGI (DLD-1 colon) greater than 100 µM and a TGI (NCI-H460 lung) greater than 100 µM. The TGI (DMS 114 small cell lung) was greater than 100 µM, the TGI (SW-620 colon) was greater than 100 µM and the TGI (SK-MEL-2 melanoma) was greater than 100 µM. For the same compound, the TGI (EKVX NSCLC) was greater than 100 µM, the TGI (SF-295 CNS) was greater than 100 µM and the TGI (HT29 colon) was greater than 100 µM. For the same compound, the TGI (SK-OV-3 ovarian) was greater than 100 µM, the TGI (A549 NSCLC) was greater than 100 µM and the TGI (CAKI-1 renal) was greater than 100 µM. The TGI (RPMI-8226 leukemia) was greater than 100 µM, the TGI (U251 CNS) was greater than 100 µM and the TGI (A498 renal) was greater than 100 µM. It also gave a TGI (OVCAR-3 ovarian) greater than 100 µM, a TGI (KM20L2 colon) greater than 100 µM and a TGI (HOP-62 NSCLC) greater than 100 µM. For the same compound, the TGI (UACC-257 melanoma) was greater than 100 µM, the TGI (RXF-631 renal) was greater than 100 µM and the TGI (MOLT-4 leukemia) was greater than 100 µM. For the same compound, the TGI (786-0 renal) was greater than 100 µM, the TGI (SN12C renal) was greater than 100 µM and the TGI (HL-60(TB) leukemia) was greater than 100 µM. The TGI (HOP-92 NSCLC) was greater than 100 µM, the TGI (UACC-62 melanoma) was greater than 100 µM and the TGI (M19-MEL melanoma) was greater than 100 µM. It also gave a TGI (OVCAR-8 ovarian) greater than 100 µM, a TGI (SF-539 CNS) greater than 100 µM and a TGI (OVCAR-4 ovarian) greater than 100 µM. For the same compound, the TGI (TK-10 renal) was greater than 100 µM, the TGI (NCI-H226 lung) was greater than 100 µM and the TGI (NCI-H23 lung) was greater than 100 µM. For the same compound, the TGI (LOX IMVI melanoma) was greater than 100 µM, the TGI (SNB-19 CNS) was greater than 100 µM and the TGI (UO-31 renal) was greater than 100 µM. It also gave a TGI (OVCAR-5 ovarian) greater than 100 µM.
For `CC(C)(C)C1CCC2c3c([nH]c4ccccc34)C3C(=O)N(c4ccc(Br)cc4)C(=O)C3C2C1` (configuration not stated), the TGI (HCT-15 colon) was 36.3 µM, the TGI (K-562 leukemia) was 43.5 µM and the TGI (LXFL 529 NSCLC) was 48.1 µM. It also gave a TGI (SNB-75 CNS) of 54.8 µM, a TGI (MALME-3M melanoma) greater than 100 µM and a TGI (SF-268 CNS) of 49.8 µM. For the same compound, the TGI (SNB-78 CNS) was greater than 100 µM, the TGI (KM12 colon) was 53.8 µM and the TGI (M14 melanoma) was greater than 100 µM. The TGI (SK-MEL-28 melanoma) was greater than 100 µM, the TGI (HCC-2998 colon) was 11.9 µM and the TGI (SK-MEL-5 melanoma) was 62.2 µM. The TGI (COLO 205 colon) was 23.3 µM, the TGI (IGROV1 ovarian) was 48 µM and the TGI (HOP-18 NSCLC) was greater than 100 µM. It also gave a TGI (CCRF-CEM leukemia) of 39.8 µM, a TGI (XF 498 CNS) of 76.2 µM and a TGI (DMS 273 small cell lung) of 31.9 µM. For the same compound, the TGI (ACHN renal) was 35.7 µM, the TGI (DLD-1 colon) was greater than 100 µM and the TGI (NCI-H460 lung) was 38.9 µM. The TGI (DMS 114 small cell lung) was 41.6 µM, the TGI (SW-620 colon) was 49.4 µM and the TGI (SK-MEL-2 melanoma) was 54.6 µM. It also gave a TGI (HCT-116 colon) of 91.9 µM, a TGI (EKVX NSCLC) of 63.2 µM and a TGI (SF-295 CNS) of 63.1 µM. It also gave a TGI (HT29 colon) of 44.3 µM, a TGI (A549 NSCLC) of 47.5 µM and a TGI (CAKI-1 renal) of 43.8 µM. It also gave a TGI (RPMI-8226 leukemia) of 38.6 µM, a TGI (A498 renal) of 52.3 µM and a TGI (KM20L2 colon) of 42.2 µM. The TGI (HOP-62 NSCLC) was 39.5 µM, the TGI (UACC-257 melanoma) was 50.2 µM and the TGI (MOLT-4 leukemia) was 26.2 µM. It also gave a TGI (786-0 renal) of 37.3 µM, a TGI (SN12C renal) of 27.6 µM and a TGI (HL-60(TB) leukemia) of 29.5 µM. The TGI (HOP-92 NSCLC) was 49 µM, the TGI (UACC-62 melanoma) was greater than 100 µM and the TGI (M19-MEL melanoma) was 33.2 µM. It also gave a TGI (OVCAR-8 ovarian) of 42.9 µM, a TGI (SF-539 CNS) of 38.7 µM and a TGI (OVCAR-4 ovarian) of 41.5 µM. It also gave a TGI (TK-10 renal) of 42 µM, a TGI (NCI-H226 lung) of 36.1 µM and a TGI (NCI-H23 lung) of 38.1 µM. For the same compound, the TGI (LOX IMVI melanoma) was 29.2 µM, the TGI (SNB-19 CNS) was 40 µM and the TGI (UO-31 renal) was 27.2 µM. The TGI (OVCAR-5 ovarian) was 56.5 µM.
